The record followed here is PMC7961786, “Magic Peptide: Unique Properties of the LRR11 Peptide in the Activation of Leukotriene Synthesis in Human Neutrophils” (International Journal of Molecular Sciences, 2021).

Assay [1] relates to human neutrophils. The assay is described as follows: Intracellular free Ca^2+ in neutrophils (Fluo-3). Type of assay: cell-based. Particulars: Figure 9. How it is done: Figure 9 Effects of ODNs and LRR11 on intracellular concentration of free Ca^2+ in neutrophils. Fluo-3 AM-loaded neutrophils (1 × 10^6/mL) were cultured in fibrinogen-coated flat bottom plates in HBSS/HEPES medium supplemented or not with 1 µM LRR11, without additives or in the presence of 1 µM ODNs, at 37 °C, 5% CO2. Fluo-3 fluorescence signals (ex. 485 nm, em. 538 nm) were monitored with 2-min intervals. (A) Values represent the means ± SEM of fluorescence intensity increments in 7 min after the addition of stimulus (n = 3). * p < 0.05, ** p < 0.01, **** p < 0.001 compared with the control, as indicated by two-way ANOVA followed by Sidak’s multiple comparison test. (B) Representative blank corrected Fluo-3 fluorescence kinetic curves for control (square, black solid line), LRR11 (circle, black dotted line), A-CpG (square, red solid line) and LRR11_A-CpG mix (circle, red dotted line).
Intracellular Ca^2+ ions were detected by staining with Fluo-3, which is known to dramatically increase fluorescence after binding of calcium ions, was used. According to the manufacturer’s protocol, human neutrophils were incubated with 5 μM Fluo-3 AM ester (Thermo Fisher Scientific, Waltham, MA, USA) for 60 min at room temperature, followed by washing in PBS. Cells were then seeded in fibrinogen-coated 96-well plates (1 × 10^6/mL of HBSS/HEPES) and incubated at 37 °C in 5% CO2. Changes in fluorescence intensity upon excitation at 485 nm and emission at 538 nm were monitored at CLARIOstar fluorescence microplate reader for at least 60 min after stimulus injection, followed by data analysis using MARS Data Analysis Software, version 3.30 (both hardware and software are from BMG Labtech, Ortenberg, Germany).

For assay [2], the system named is 5′-biotinylated G-rich ODN. In words: TSM acoustic biosensor, peptide binding to immobilized G-rich ODN. Particulars: LRR11 1 to 100 nM, Hanks buffer. An excerpt: (§1) To characterize the interaction of the studied synthetic ODNs with the LRR11 peptide, we applied the thickness shear mode (TSM) acoustic biosensor method, which is based on the investigation of ultrasonic waves in piezoelectric materials such as AT-cut quartz. This approach involved immobilizing a 5′-biotinylated ODN on the surface of TSM transducer covered by NeutrAvidin and then adding the LRR11 peptide. An unrelated peptide (URP) with a random primary structure ([…]) was used as a negative control. The measurement procedure was divided into several steps, in which each immobilization stage was followed by washing with an appropriate buffer solution; when peptide solutions at different concentrations (from 1 to 100 nM) were added to the surface-modified TSM transducer, a wash with Hanks buffer was used before increasing the peptide concentration.
Eight MHz AT-cut piezoelectric quartz crystal transducer was obtained from CH Instruments, Austin, TX, USA. The transducer was covered on both sides with thin layers of gold that served as electrodes (working area 0.2 cm^2). Prior ODNs immobilization, the crystal was carefully cleaned with basic Piranha solution (29% NH3, 30% H2O and H2O2 with volumetric 1:5:1 ratio, respectively) for 25 min. After the thorough cleaning, the crystal was positioned between two silicon O-rings in a flow-through cell. […]

Assay [3] has as its system 5′-biotinylated B-CpG. The assay is described as follows: TSM acoustic biosensor, peptide binding to immobilized B-CpG.
Text: as §1
Based on Langmuir isotherm Equation (1), (1) Δfcc=Δfsmaxc/KD+c where Δfs(c) is the frequency change at a certain peptide concentration under equilibrium conditions, (Δfs)max is the maximum frequency change, c is the peptide concentration, and KD is the equilibrium constant of dissociation, we estimated the (Δfs)max and KD values for binding of the LRR11 peptide to C-CpG and B-CpG (Table 3).
Eight MHz AT-cut piezoelectric quartz crystal transducer was obtained from CH Instruments, Austin, TX, USA. The transducer was covered on both sides with thin layers of gold that served as electrodes (working area 0.2 cm^2). Prior ODNs immobilization, the crystal was carefully cleaned with basic Piranha solution (29% NH3, 30% H2O and H2O2 with volumetric 1:5:1 ratio, respectively) for 25 min. After the thorough cleaning, the crystal was positioned between two silicon O-rings in a flow-through cell. The analyte was injected into the cell using a Genie Plus syringe pump (Kent Scientific, Torrington, CT, USA) at a flow rate of 50 μL/min. Each solution was applied until the resonance frequency stabilized. The surface of the transducer was first washed with deionized water, and then 125 μg/mL NeutrAvidin (WWR International GmbH, Vienna, Austria) solution in water was applied. Approximately 15 min were required to stabilize the signal at a constant NeutrAvidin flow rate. This was followed by washing with water to rinse out all non-chemisorbed NeutrAvidin molecules. Immobilization of ODN on the gold surface of the crystals is accomplished using avidin–biotin interactions. A 1 μM 5′-biotinylated ODN solution was injected over the neutravidin-modified surface and subsequently the crystal was washed again with water. The system was then equilibrated using Hanks buffer solution. This buffer was suitable for studying LRR11–ODN binding. Then LRR11 was used at concentrations of 1, 5, 10, 50 and 100 nM […] in Hanks buffer. After each addition of LRR11, the sensor surface was washed with Hanks buffer and LRR11 with the higher concentration was added. All binding experiments were carried out at room temperature. Buffer and sample solutions were introduced in a flow-through format. A network analyzer 8712ES (Agilent Technologies, Santa Clara, CA, USA) was used to measure the impedance properties of the sensor and determine fS and Rm.

Assay [4] has as its system human neutrophils. In words: Reactive oxygen species formation (H2DCF-DA). Format: cell-based. The conditions noted are these: n = 3, Figure 8. How it is done: Figure 8 When added simultaneously, LRR11 potentiates the prooxidant effects of oligonucleotides. H2DCF-DA-stained PMNLs (1 × 10^6/mL) were cultured for 1 h at 37 °C in 5% CO2 without additives or in the presence of 1 µM ODN, supplemented (shaded) or not (solid fill) with 1 µM LRR11. DCF green fluorescence signals (ex. 485 nm, em. 538 nm) were monitored every 5 min for an hour. Values represent the means ± SEM of DCF fluorescence intensity increments (RFU) in 30 min after stimulus addition (n = 3). * p < 0.05 for the pairs of data specified, as indicated by two-way ANOVA followed by Tukey’s multiple comparison test.
The level of intracellular production of reactive oxygen species was monitored by measuring the green fluorescence of H2DCF-DA-labeled oxidized product incorporated into cells according to the manufacturer’s protocol. Briefly, human neutrophils were incubated with 5 μM carboxy-H2DCF-DA (Molecular Probe, Eugene, OR, USA) for 60 min at room temperature, followed by rinsing with PBS. […] Fluorescent cell staining (excitation at 485 nm and emission at 538 nm) was recorded at CLARIOstar fluorescence microplate reader, using MARS Data Analysis Software, version 3.30 (both hardware and software are from BMG Labtech, Ortenberg, Germany).

Entries after “also recorded” stand apart in the source; their conditions may differ.

Turning to “QLRKLNLSFNYQKRVSFAHLSLAPSFGSLV [LRR11, 30 amino acid peptide from leucine-rich repeat of TLR9]”, in assay [1] (1 µM LRR11 +/- 1 µM ODNs), the “effect of LRR11 on calcium ion influx with/without ODNs” value is “noticeable only in the absence of ODNs”. Also, in assay [1] (1 µM LRR11 or 1 µM ODNs, Fluo-3, 37 °C, n = 3), the calcium influx entry is on record as “potentiates calcium influx”. Moreover, in assay [1] (1 µM LRR11 or 1 µM ODNs), the “time course of cytoplasmic Ca^2+ concentration” value is “ensures long-term maintenance of an increased cytoplasmic Ca^2+ concentration”. In addition, in assay [2], the “interaction with G-rich ODN” value is recorded as “does not interact with the LRR11 peptide at any concentration; also recorded: no significant change of resonant frequency was observed”. In addition, the “change of ∆fs at low LRR11 concentrations” value in assay [3] (1, 5, 10 nM LRR11, B-CpG) is on record as “not significant or small changes of ∆fs”. Moreover, the Kd in assay [3] (LRR11-B-CpG complex, Langmuir fit, Hanks buffer, room temperature, LRR11 1-100 nM, three independent experiments) worked out at 55.1 ± 17.4 nM. In addition, the “effect of LRR11 on prooxidant potential of ODNs” value in assay [4] (1 µM LRR11 + 1 µM ODN, 30 min) is reported as “Notably enhancing the prooxidant potential of the studied ODNs, in particular, CpG-containing ones; also recorded: only CpG-ODNs in combination with LRR11 enhanced responses”. The “effect of LRR11 alone on synthesis of reactive oxygen species” value in assay [4] (1 µM LRR11, 37 °C) is reported as “does not affect the synthesis of reactive oxygen species”.
